# pIC50: −log10 of the molar value.
# What was measured:
# [1] = biological target: T1, [^3 H]-PAF binding, platelet membrane (Oryctolagus cuniculus, UniProt G1TEI7); experiment: inhibition of specific [3H]-PAF binding to rabbit platelet membranes; conditions: 1 nM [3H]-PAF, 0°C 1 h 30
# T1 construct: Platelet membrane homogenate was stored at -80° C; from tissue; host or cells: rabbit platelets (membrane homogenate from lysed washed platelets)
# Experimental: Synthetic tritiated [^3 H]-PAF used was in ethanol solution with a specific activity of 59.5 ci/mmols. Unlabelled PAF and lyso-PAF were solubilized in ethanol solution and stored at -80° C. The compounds were solubilized in DMSO.
# Rabbit whole blood (6 volumes) was drawn from the central ear artery into 1 volume of ACD solution (citric acide 1.4 g, sodium citrate 2 5 g, Dextrose 2 g per 100 ml of H2 O) and centrifuged at 150 g for 15 minutes. The platelet-rich plasma (PRP) was carefully removed and centrifuged for 15 minutes at 1000 g. The platelet pellet was then washed 3 times: twice in Tris-HCl buffer 10 mM, pH 7.4 containing NaCl 150 mM, MgCl2 5 mM, EDTA 2 mM and the last time in the same but sodium-free buffer.
# The platelet pellet was resuspended in this latter buffer, quickly frozen in liquid nitrogen and slowly thawed at room temperature for at least 3 times as described by T. Y. Shen et al. The lysed platelets were centrifuged at 100,000 g for 30 minutes in a BECKMAN model L8.55 ultra centrifuge (rotor 50.2 Ti). Platelet membrane homogenate was stored at -80° C. and used within two weeks without noticeable changes in PAF-acether binding characteristics.
# Protein contain was determined by the Lowry method using bovine serum albumine as standard.
# 60 to 100 μg of membrane proteins were added to a final volume of 1 ml in plastic tubes containing 1 nM [^3 H]-PAF in Tris-HCl 10 mM pH 7 buffer containing 0.025 % bovine serum albumin and incubated with or without unlabelled PAF or PAF-antagonists. The incubation was carried out for 1 h 30 at 0° C. The bound [^3 H]-PAF was separated from the free [^3 H]-PAF by immediate filtration through whatman GF/C glass fiber filters under vacuum (Brandel system). The reaction and the filters were washed 3 times with 5 ml of ice-cold buffer. The filters were then placed into polyethylene phials filled up with 10 ml of liquid scintillation fluid and the radioactivity was measured by an LKB β counter with 45% efficiency.
# The non specific binding was determined in the presence of 10^-6 M of unlabelled PAF. The specific binding was calculated by substracting non specific binding from the total binding. The inhibition by compounds on the specific [^3 H]-PAF binding was determined as the percent inhibition by the equation: [formula]
# [2] = tested on: polymorphonuclear leukocytes (PMNs); experiment: antagonism of polymorphonuclear leukocyte aggregation induced by PAF; format: cell-based, rat (Wistar); conditions: rat PMNs, PAF 10^-8; for pIC50: Leukocyte
# Experimental: Polymorphonuclear leukocytes (PMNs) were obtained as described by A. W. Ford-Hutchinson et al. (Br - J. Pharmacol. 76, 367-371, 1982). Cell suspensions ([…]) were prepared from peritoneal exudates obtained after a 5 ml IP injection of sodium caseinate 12% (w/v) to male Wistar rats, 300 g body weight.
# After centrifugation, cells were washed with Hanks and resuspended in MEM/Hepes 30 mM medium (PM=7.4) at a concentration of 10^7 cells/ml. Cytochalasin B (5 μg/ml) was added 10 minutes before trigering aggregation to amplify the PMNs aggregation. The light transmittance through the cell suspension (400 μl) was measured under a 900 R/mn magnetic stirring, with a dual beam aggregometer (Chronolog Corp. Coultronics.)
# The control cuvet is the cell suspension diluted to 20% of the cell count with MEM and the difference represents 100% transmittance. Change in transmittance, which occurs when PAF is added, was continuously recorded.
# Drugs solubilized in MEM/Hepes were added (4 μl) to PMNs suspension 2 minutes before PAF addition.
# [3] = tested on: PAF-induced [Ca^2+ ]i mobilization, washed rabbits platelets; experiment: inhibition of intracytosolic free calcium mobilization induced by PAF in washed rabbit platelets; format: cell-based; conditions: PAF 2×10^-9 M; for inhibition of PAF-induced [Ca^2+ ]i mobilization (in words): 5×10^-7 M; for inhibition at 0.05 µM: Oryctolagus cuniculus, Platelet, 5×10^-8 M, read-out: inhibition of PAF effect on [Ca^2+ ]i
# Experimental: Blood was taken from the auricular artery of the rabbit on citric acid/sodium citrate/dextrose and anticoagulan and the washed platelets were prepared according to Ardlie et al., Brit. J. Pharmacology, 19, 7-17, 1970. They were incubated with acetylsalicylic salt (100 μM, 30 minutes) to avoid thromboxane induced aggregation. They were then loaded with the fluorescent calcium indicator dye quin 2 by incubation with quin 2 aceto-methylester (15 μM in DMSO, 20 minutes at room temperature) which penetrates the cell membrane and after hydrolysed is trapped in the platelet. Drugs were preincubated with platelets for 15 minutes simultaneously to CP/CPK mixture which destroys secreted ADP.
# Fluorescent measurement was then performed (excitation λ=339 nm, emission λ=494 nm) after PAF addition to platelet suspension. The fluorescence intensity is proportional to the cytosolic free calcium level [Ca^2+ ]i which can be quantified as described by Tsien et al., J. Cell Biol., 94, 325-334, 1982.
# [4] = tested on: PAF-induced thrombocytopenia; experiment: PAF-induced thrombocytopenia in the guinea pig; format: in vivo; conditions: for Percentage Variation (thrombocytopenia): vs control; for inhibition of PAF-induced thrombocytopenia (in words): pyridinium compound 0.5, 1 and 5 mg/kg IV, quinolinium compound 0.5 and 1 mg/kg IV; for Percentage Decrease in leukocyte number: thrombocytopenia
# Experimental: Male Guinea-pig (400-500 g) were anesthetized with urethane (1.5 g/kg: IP) prior to be tracheotomized and ventilated with a respiratory pump (UGO BASILE) (70-80 breath/minute, 1 ml air/100 g/breath) to abolish spontaneous respiration a pneumothorax was performed. The resistance to inflation was measured with a pressure transducer (UGO BASILE) against an initial pressure of 10 cm H2 O according to Konzett and Rossler. Animals were allocated into groups and were treated or not by the compounds of the invention (0.05, 0.1, 0.5, 1 and 5 mg/kg).The products were given IV 1 hour before challenge with PAF.
# The animals were challenged with various doses of PAF ([…]) given intravenously, and the variations in the resistance to inflation were recorded.
# Blood samples were collected prior to and 1,5 and 10 minutes following to PAF-challenge. Forty μl of blood were diluted in 10 ml isoton (Coultronics, France); erythrocytes were lysed with Zapoglobin (France) prior leukocytes were counted in a coulter counter. To determine platelet number, 40 μl of blood were diluted in 2 ml isoton and centrifuged at 100 runs per minute for 30 secondes, 100 μl of the supernatant were collected and further diluted in 10 ml isoton prior counting in a coulter counter.
# T1 sequence (G1TEI7 1-342): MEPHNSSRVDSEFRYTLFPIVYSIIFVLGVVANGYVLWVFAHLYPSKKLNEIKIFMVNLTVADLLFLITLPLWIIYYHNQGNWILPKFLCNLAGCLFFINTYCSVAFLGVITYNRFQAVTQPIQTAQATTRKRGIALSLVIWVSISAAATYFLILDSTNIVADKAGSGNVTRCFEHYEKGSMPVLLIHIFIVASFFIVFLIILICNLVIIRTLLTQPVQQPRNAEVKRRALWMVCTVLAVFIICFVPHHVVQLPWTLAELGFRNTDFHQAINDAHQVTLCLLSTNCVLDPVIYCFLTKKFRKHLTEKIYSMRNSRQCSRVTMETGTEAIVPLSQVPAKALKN
pIC50 [1],pIC50 [2],Compound,inhibition of PMN aggregation (in words) [2],inhibition of PAF-induced [Ca^2+ ]i mobilization (in words) [3],inhibition at 0.05 µM [3] [%],"Percentage Variation (thrombocytopenia) ([4]; 0.1 mg/kg IV, 1 mn) [%]","Percentage Variation (thrombocytopenia) ([4]; 0.1 mg/kg IV, 5 mn) [%]","Percentage Variation (thrombocytopenia) ([4]; 0.1 mg/kg IV, 10 mn) [%]","Percentage Variation (thrombocytopenia) ([4]; 0.5 mg/kg IV, 1 mn) [%]","Percentage Variation (thrombocytopenia) ([4]; 0.5 mg/kg IV, 5 mn) [%]","Percentage Variation (thrombocytopenia) ([4]; 0.5 mg/kg IV, 10 mn) [%]","Percentage Variation (thrombocytopenia) ([4]; 1 mg/kg IV, 1 mn) [%]","Percentage Variation (thrombocytopenia) ([4]; 1 mg/kg IV, 5 mn) [%]","Percentage Variation (thrombocytopenia) ([4]; 1 mg/kg IV, 10 mn) [%]",inhibition of PAF-induced thrombocytopenia (in words) [4],"Percentage Decrease in leukocyte number ([4]; 0.1 mg/kg IV, 1 mn)","Percentage Decrease in leukocyte number ([4]; 0.1 mg/kg IV, 5 mn)","Percentage Decrease in leukocyte number ([4]; 0.1 mg/kg IV, 10 mn)","Percentage Decrease in leukocyte number ([4]; 0.5 mg/kg IV, 1 mn)","Percentage Decrease in leukocyte number ([4]; 0.5 mg/kg IV, 5 mn)",also measured
7.46,6.00,"CCCCCCCCCCCCCCCCCC1(C)OCC(COC(=O)CCCCC[n+]2cccc3ccccc32)O1 (stereo not drawn) [Example 10, 2-heptadecyl 2-methyl 4-[6'-(N-quinolinium)hexanoyloxymethyl) 1,3-dioxolanbromide]",dose-dependently inhibit,totally inhibit,75,-21.7,0,-7.2,-59.9,-39.3,-33.8,-58.3,-55.0,-60.0,inhibit,51.1 +/- 12.1%,49.1 +/- 8.8%,45.0 +/- 9.7%,26.2 +/- 6.3%,29.8 +/- 1.7%,"Percentage Decrease in leukocyte number ([4]; 0.5 mg/kg IV, 10 mn): 32.1 +/- 5.8%; Percentage Decrease in leukocyte number ([4]; 1 mg/kg IV, 1 mn): 19.3 +/- 1.4%; Percentage Decrease in leukocyte number ([4]; 1 mg/kg IV, 5 mn): 22.1 +/- 2.5%; Percentage Decrease in leukocyte number ([4]; 1 mg/kg IV, 10 mn): 19.4 +/- 3.6%"
7.46,6.30,"CCCCCCCCCCCCCCCCCC1(C)OCC(COC(=O)CCCCC[n+]2ccccc2)O1 (stereo not drawn) [Example 9, 2-heptadecyl 2-methyl 4-[6'-(N-pyridinium)hexanoyloxymethyl] 1,3 dioxolan bromide]",dose-dependently inhibit,totally inhibit,44,-56.1,-18.2,-0.5,-71.9,-77.4,-74.4,-83.2,-46.9,-50.6,inhibit,30.1 +/- 13.72%,34.7 +/- 3.60%,42.3 +/- 4.79%,19.3 +/- 10.19%,9.6 +/- 12.15%,"Percentage Variation (thrombocytopenia) ([4]; 0.05 mg/kg IV, 1 mn): -34.1%; Percentage Variation (thrombocytopenia) ([4]; 0.05 mg/kg IV, 5 mn): +1.4%; Percentage Variation (thrombocytopenia) ([4]; 0.05 mg/kg IV, 10 mn): -15.1%; Percentage Variation (thrombocytopenia) ([4]; 5 mg/kg IV, 1 mn): -93.9%; Percentage Variation (thrombocytopenia) ([4]; 5 mg/kg IV, 5 mn): -86.8%; Percentage Variation (thrombocytopenia) ([4]; 5 mg/kg IV, 10 mn): -97.4%; Percentage Decrease in leukocyte number ([4]; 0.05 mg/kg IV, 1 mn): 45.2 +/- 1.20%; Percentage Decrease in leukocyte number ([4]; 0.05 mg/kg IV, 5 mn): 43.0 +/- 4.80%; Percentage Decrease in leukocyte number ([4]; 0.05 mg/kg IV, 10 mn): 36.1 +/- 2.41%; Percentage Decrease in leukocyte number ([4]; 0.5 mg/kg IV, 10 mn): 10.9 +/- 9.94%; Percentage Decrease in leukocyte number ([4]; 1 mg/kg IV, 1 mn): 11.5 +/- 6.21%; Percentage Decrease in leukocyte number ([4]; 1 mg/kg IV, 5 mn): 22.5 +/- 3.27%; Percentage Decrease in leukocyte number ([4]; 1 mg/kg IV, 10 mn): 21.0 +/- 3.87%; Percentage Decrease in leukocyte number ([4]; 5 mg/kg IV, 1 mn): 4.2 +/- 2.35%; Percentage Decrease in leukocyte number ([4]; 5 mg/kg IV, 5 mn): 5.6 +/- 1.84%; Percentage Decrease in leukocyte number ([4]; 5 mg/kg IV, 10 mn): 1.1 +/- 1.15%"

# From patent US4921865A, “Aminoacylates of glycerol acetal” (Societe de Conseils de Recherches et d'Applications …, priority 1987, dated 1990)
